{"source": "paper PMC5218480", "about": "(PLoS ONE, 2017)", "test_system": "MV-4-11 cells", "test": "Gene expression microarray analysis (Affymetrix PrimeView) and GSEA", "type": "cell-based, human", "design": "RFU PODN (11730768_x_at) / Fold change /veh PODN (11730768_x_at) / RFU LINC00158 (11744669_a_at) / Fold change /veh LINC00158 (11744669_a_at) / RFU DUSP10 (11751237_a_at) / Fold change /veh DUSP10 (11751237_a_at) / RFU ID3 (11757404_x_at) / Fold change /veh ID3 (11757404_x_at) / RFU PLEKHG5 (11737974_s_at) / Fold change /veh PLEKHG5 (11737974_s_at) / RFU LRRC4B (11730491_at) / Fold change /veh LRRC4B (11730491_at) / RFU GIMAP4 (11747438_a_at) / Fold change /veh GIMAP4 (11747438_a_at) / RFU KRT8 (11758183_x_at) / Fold change /veh KRT8 (11758183_x_at) / RFU CNN1 (11734310_a_at) / Fold change /veh CNN1 (11734310_a_at) / RFU VPS37D (11726825_at) / Fold change /veh VPS37D (11726825_at) / RFU C10orf10 (11716522_x_at) / Fold change /veh C10orf10 (11716522_x_at) / RFU KIR2DL2 /// KIR2DL4 /// KIR2DL5A /// KIR2DL5B /// KIR2DS1 /// KIR2DS2 /// KIR2DS3 /// KIR2DS4 /// KIR3DL3 /// KIR3DL3 /// KIR3DS1 (11738374_at) / Fold change /veh KIR2DL2 /// KIR2DL4 /// KIR2DL5A /// KIR2DL5B /// KIR2DS1 /// KIR2DS2 /// KIR2DS3 /// KIR2DS4 /// KIR3DL3 /// KIR3DL3 /// KIR3DS1 (11738374_at) / RFU C1QL1 (11718748_at) / Fold change /veh C1QL1 (11718748_at) / RFU TMPRSS4 (11747572_a_at) / Fold change /veh TMPRSS4 (11747572_a_at) / RFU HAMP (11756126_x_at) / Fold change /veh HAMP (11756126_x_at) / RFU RNFT2 (11725882_a_at) / Fold change /veh RNFT2 (11725882_a_at) / RFU NR4A2 (11747474_a_at) / Fold change /veh NR4A2 (11747474_a_at) / RFU ABCC12 (11746883_a_at) / Fold change /veh ABCC12 (11746883_a_at) / RFU TMEM136 (11760407_x_at) / Fold change /veh TMEM136 (11760407_x_at) / RFU CLDN22 /// WWC2 (11732394_at) / Fold change /veh CLDN22 /// WWC2 (11732394_at) / RFU HLA-DPB1 (11760878_x_at) / Fold change /veh HLA-DPB1 (11760878_x_at) / RFU SPINT1 (11716480_a_at) / Fold change /veh SPINT1 (11716480_a_at) / RFU GAP43 (11754022_s_at) / Fold change /veh GAP43 (11754022_s_at) / RFU A4GNT (11735810_at) / Fold change /veh A4GNT (11735810_at) / RFU PRB3 (11715151_x_at) / Fold change /veh PRB3 (11715151_x_at) / RFU TUBB4B (11761932_at) / Fold change /veh TUBB4B (11761932_at) / RFU CAPN14 (11732068_a_at) / Fold change /veh CAPN14 (11732068_a_at) / RFU TMCC2 (11721928_a_at) / Fold change /veh TMCC2 (11721928_a_at) / RFU IRGQ (11745062_a_at) / Fold change /veh IRGQ (11745062_a_at) / RFU FAM174B (11720279_a_at) / Fold change /veh FAM174B (11720279_a_at) / RFU TMPRSS4 (11748680_a_at) / Fold change /veh TMPRSS4 (11748680_a_at) / RFU FAM212B (11763350_a_at) / Fold change /veh FAM212B (11763350_a_at) / RFU PLEKHG5 (11743358_a_at) / Fold change /veh PLEKHG5 (11743358_a_at) / RFU ZSCAN30 (11745921_a_at) / Fold change /veh ZSCAN30 (11745921_a_at) / RFU CMKLR1 (11741424_a_at) / Fold change /veh CMKLR1 (11741424_a_at) / RFU LOC101060620 /// MAPK8IP1 (11723275_at) / Fold change /veh LOC101060620 /// MAPK8IP1 (11723275_at) / RFU SPTSSB (11747773_x_at) / Fold change /veh SPTSSB (11747773_x_at) / RFU PRSS12 (11739890_at) / Fold change /veh PRSS12 (11739890_at) / RFU BIN1 (11741810_x_at) / Fold change /veh BIN1 (11741810_x_at) / RFU WNT11 (11732464_a_at) / Fold change /veh WNT11 (11732464_a_at) / RFU C10orf10 (11716521_a_at) / Fold change /veh C10orf10 (11716521_a_at) / RFU C5orf56 (11738089_at) / Fold change /veh C5orf56 (11738089_at) / RFU CYB561 (11721691_x_at) / Fold change /veh CYB561 (11721691_x_at) / RFU ANKRD19P (11752326_a_at) / Fold change /veh ANKRD19P (11752326_a_at) / RFU OR2T12 /// OR2T33 /// OR2T8 (11738714_s_at) / Fold change /veh OR2T12 /// OR2T33 /// OR2T8 (11738714_s_at) / RFU VCAN (11748164_a_at) / Fold change /veh VCAN (11748164_a_at) / RFU JSRP1 (11732532_at) / Fold change /veh JSRP1 (11732532_at) / RFU KRTAP10-11 (11738290_x_at) / Fold change /veh KRTAP10-11 (11738290_x_at) / RFU MYO3A (11730013_a_at) / Fold change /veh MYO3A (11730013_a_at) / RFU EBF3 (11725865_a_at) / Fold change /veh EBF3 (11725865_a_at) / RFU CAMK2N1 (11719241_x_at) / Fold change /veh CAMK2N1 (11719241_x_at) / RFU C5orf56 (11738088_a_at) / Fold change /veh C5orf56 (11738088_a_at) / RFU OLFML3 (11715873_a_at) / Fold change /veh OLFML3 (11715873_a_at) / RFU LOC100653217 /// NTM (11731650_a_at) / Fold change /veh LOC100653217 /// NTM (11731650_a_at) / RFU MAPK11 (11762145_a_at) / Fold change /veh MAPK11 (11762145_a_at) / RFU FIZ1 (11724087_x_at) / Fold change /veh FIZ1 (11724087_x_at) / RFU OASL (11726364_x_at) / Fold change /veh OASL (11726364_x_at) / RFU SOX15 (11748057_x_at) / Fold change /veh SOX15 (11748057_x_at) / RFU CD79A (11719716_a_at) / Fold change /veh CD79A (11719716_a_at) / RFU HIST1H1D (11736915_at) / Fold change /veh HIST1H1D (11736915_at) / RFU CASKIN2 (11723855_a_at) / Fold change /veh CASKIN2 (11723855_a_at) / RFU LOC730098 (11760151_x_at) / Fold change /veh LOC730098 (11760151_x_at) / RFU OR4N2 (11742367_at) / Fold change /veh OR4N2 (11742367_at) / RFU PRRT2 (11749266_a_at) / Fold change /veh PRRT2 (11749266_a_at) / RFU SNX32 (11753110_a_at) / Fold change /veh SNX32 (11753110_a_at) / RFU CDHR5 (11726645_a_at) / Fold change /veh CDHR5 (11726645_a_at) / RFU RCAN1 (11760418_a_at) / Fold change /veh RCAN1 (11760418_a_at) / RFU FAM167A (11723789_a_at) / Fold change /veh FAM167A (11723789_a_at) / RFU FAM26E (11764081_at) / Fold change /veh FAM26E (11764081_at) / RFU ISYNA1 (11749810_s_at) / Fold change /veh ISYNA1 (11749810_s_at) / RFU ACY1 (11761880_at) / Fold change /veh ACY1 (11761880_at) / RFU 11764098_at / Fold change /veh 11764098_at / RFU SAMD14 (11745864_x_at) / Fold change /veh SAMD14 (11745864_x_at) / RFU NPB (11741838_a_at) / Fold change /veh NPB (11741838_a_at) / RFU TMPRSS6 (11731388_a_at) / Fold change /veh TMPRSS6 (11731388_a_at) / RFU KRTAP10-2 (11738614_at) / Fold change /veh KRTAP10-2 (11738614_at) / RFU ARHGAP8 /// PRR5-ARHGAP8 (11727945_x_at) / Fold change /veh ARHGAP8 /// PRR5-ARHGAP8 (11727945_x_at) / RFU KRTAP5-7 /// NADSYN1 (11734609_at) / Fold change /veh KRTAP5-7 /// NADSYN1 (11734609_at) / RFU RASL12 (11751679_a_at) / Fold change /veh RASL12 (11751679_a_at) / RFU CDKN2B (11736163_a_at) / Fold change /veh CDKN2B (11736163_a_at) / RFU PRF1 (11729649_at) / Fold change /veh PRF1 (11729649_at) / RFU, ZNF638 /// ZNF638-IT1 / Fold change vs veh, ZNF638 /// ZNF638-IT1 / RFU, PANK3 / Fold change vs veh, PANK3 / RFU, SH3YL1 / Fold change vs veh, SH3YL1 / RFU, ZEB2 / Fold change vs veh, ZEB2 / RFU, NRIP1 / Fold change vs veh, NRIP1 / RFU, PTTG1IP / Fold change vs veh, PTTG1IP / RFU, CAPN2 / Fold change vs veh, CAPN2 / RFU, MED14 / Fold change vs veh, MED14 / RFU, SNORA58 / Fold change vs veh, SNORA58 / RFU, C1orf63 / Fold change vs veh, C1orf63 / RFU, LRRFIP1 / Fold change vs veh, LRRFIP1 / RFU, NDUFAF7 / Fold change vs veh, NDUFAF7 / RFU, SLC12A2 / Fold change vs veh, SLC12A2 / RFU, IBTK / Fold change vs veh, IBTK / RFU, ESF1 / Fold change vs veh, ESF1 / Fold change vs veh, TMEM50B / RFU, TAOK1 / Fold change vs veh, TAOK1 / RFU, ACBD3 / Fold change vs veh, ACBD3 / RFU, TMA16 / Fold change vs veh, TMA16 / RFU, RWDD3 / Fold change vs veh, RWDD3 / RFU, BCAT1 / Fold change vs veh, BCAT1 / RFU, EDEM3 / Fold change vs veh, EDEM3 / RFU, TMEM33 / Fold change vs veh, TMEM33 / RFU, WDR75 / Fold change vs veh, WDR75 / RFU, AHCTF1 / Fold change vs veh, AHCTF1 / RFU, TFRC / Fold change vs veh, TFRC / RFU, ZDHHC17 / Fold change vs veh, ZDHHC17 / RFU, NOM1 / Fold change vs veh, NOM1 / RFU, ARL8B / Fold change vs veh, ARL8B / RFU, ZBTB11 / Fold change vs veh, ZBTB11 / RFU, TAMM41 / Fold change vs veh, TAMM41 / RFU, KIAA1704 /// LOC100996395 / Fold change vs veh, KIAA1704 /// LOC100996395 / RFU, ING1 / Fold change vs veh, ING1 / RFU, TRMT61B / Fold change vs veh, TRMT61B / RFU, FUBP3 / Fold change vs veh, FUBP3 / RFU, TP53 / Fold change vs veh, TP53 / RFU, TNKS2 / Fold change vs veh, TNKS2 / RFU, ZFP14 / Fold change vs veh, ZFP14 / RFU, ACTR2 / Fold change vs veh, ACTR2 / RFU, PPP3R1 / Fold change vs veh, PPP3R1 / RFU, PIK3R1 / Fold change vs veh, PIK3R1 / RFU, HNRNPA1 / Fold change vs veh, HNRNPA1 / RFU, RNF170 / Fold change vs veh, RNF170 / RFU, ZNF28 / Fold change vs veh, ZNF28 / RFU, RNGTT / Fold change vs veh, RNGTT / RFU, OGT / Fold change vs veh, OGT / RFU, BRD1 / Fold change vs veh, BRD1 / RFU, MARS / Fold change vs veh, MARS / RFU, ZNF655 / Fold change vs veh, ZNF655 / RFU, FAHD1 / Fold change vs veh, FAHD1 / RFU, BDP1 / Fold change vs veh, BDP1 / RFU, LRRCC1 / Fold change vs veh, LRRCC1 / RFU, ARID1A / Fold change vs veh, ARID1A / RFU, ZNF146 / Fold change vs veh, ZNF146 / RFU, ZNF330 / Fold change vs veh, ZNF330 / RFU, GPN3 / Fold change vs veh, GPN3 / RFU, C9orf123 / Fold change vs veh, C9orf123 / RFU, N4BP2L2 / Fold change vs veh, N4BP2L2 / RFU, ARFIP1 / Fold change vs veh, ARFIP1 / RFU, FAM179B / Fold change vs veh, FAM179B / RFU, BCL10 / Fold change vs veh, BCL10 / RFU, UHRF1BP1L / Fold change vs veh, UHRF1BP1L / RFU, BET1 / Fold change vs veh, BET1 / RFU, CNOT2 / Fold change vs veh, CNOT2 / RFU, ZNF268 / Fold change vs veh, ZNF268 / Fold change vs veh, ZNF507 / RFU, DGCR2 / Fold change vs veh, DGCR2 / RFU, WDSUB1 / Fold change vs veh, WDSUB1 / Fold change vs veh, HSP90B1 /// MIR3652 / RFU, ADSS / Fold change vs veh, ADSS / RFU, GK / Fold change vs veh, GK / RFU, ZNF148 / Fold change vs veh, ZNF148 / RFU, TAF9 / Fold change vs veh, TAF9 / RFU, SLC1A5 / Fold change vs veh, SLC1A5 / RFU, SLMO2 / Fold change vs veh, SLMO2 / RFU, ABCC4 / Fold change vs veh, ABCC4 / RFU, LOC101060439 /// RAP1B / Fold change vs veh, LOC101060439 /// RAP1B / RFU, RFX7 / Fold change vs veh, RFX7 / RFU, GTPBP10 / Fold change vs veh, GTPBP10 / RFU, CNEP1R1 / Fold change vs veh, CNEP1R1 / RFU, BIVM-ERCC5 /// ERCC5 / Fold change vs veh, BIVM-ERCC5 /// ERCC5 / RFU, ILF3 / Fold change vs veh, ILF3 / RFU 11762660_at / Fold change /veh 11762660_at / RFU VCAN (11757783_s_at) / Fold change /veh VCAN (11757783_s_at) / RFU DDX43 (11728927_at) / Fold change /veh DDX43 (11728927_at) / RFU KRT8 (11758188_x_at) / Fold change /veh KRT8 (11758188_x_at) / RFU NKD1 (11759106_at) / Fold change /veh NKD1 (11759106_at) / RFU SRD5A1 (11742802_a_at) / Fold change /veh SRD5A1 (11742802_a_at) / RFU TPSAB1 /// TPSB2 (11721975_s_at) / Fold change /veh TPSAB1 /// TPSB2 (11721975_s_at) / RFU GSTM3 (11746129_a_at) / Fold change /veh GSTM3 (11746129_a_at) / RFU IL23R (11737362_x_at) / Fold change /veh IL23R (11737362_x_at) / RFU TMEM51 (11727254_a_at) / Fold change /veh TMEM51 (11727254_a_at) / RFU PIWIL2 (11732686_x_at) / Fold change /veh PIWIL2 (11732686_x_at) / RFU ORM1 (11744905_x_at) / Fold change /veh ORM1 (11744905_x_at) / RFU CCDC152 (11743942_at) / Fold change /veh CCDC152 (11743942_at) / RFU ECM1 (11717891_a_at) / Fold change /veh ECM1 (11717891_a_at) / RFU IL23R (11748794_a_at) / Fold change /veh IL23R (11748794_a_at) / RFU TNFAIP8L3 (11732012_x_at) / Fold change /veh TNFAIP8L3 (11732012_x_at) / RFU MBOAT4 (11741988_at) / Fold change /veh MBOAT4 (11741988_at) / RFU 11764193_at / Fold change /veh 11764193_at / RFU TMEM53 (11763286_at) / Fold change /veh TMEM53 (11763286_at) / RFU MAGEB2 (11727129_at) / Fold change /veh MAGEB2 (11727129_at) / RFU TMEM200A (11744735_a_at) / Fold change /veh TMEM200A (11744735_a_at) / RFU CCDC152 (11751479_a_at) / Fold change /veh CCDC152 (11751479_a_at) / RFU FAM211A (11726209_a_at) / Fold change /veh FAM211A (11726209_a_at) / RFU RGS16 (11746705_a_at) / Fold change /veh RGS16 (11746705_a_at) / RFU VCAN (11755009_s_at) / Fold change /veh VCAN (11755009_s_at) / RFU RHOB (11743442_s_at) / Fold change /veh RHOB (11743442_s_at) / RFU RGS16 (11720943_a_at) / Fold change /veh RGS16 (11720943_a_at) / RFU RGS16 (11720944_at) / Fold change /veh RGS16 (11720944_at) / RFU, VPS4B / Fold change vs veh, VPS4B / RFU, CREB1 / Fold change vs veh, CREB1 / RFU, DNAJC13 / Fold change vs veh, DNAJC13 / RFU, GNAQ / Fold change vs veh, GNAQ / RFU, CDK5R1 / Fold change vs veh, CDK5R1 / RFU, ZRANB3 / Fold change vs veh, ZRANB3 / RFU, CUL4A / Fold change vs veh, CUL4A / RFU, CCNY / Fold change vs veh, CCNY / RFU, UFL1 / Fold change vs veh, UFL1 / RFU, COG3 / Fold change vs veh, COG3 / RFU, DIAPH2 / Fold change vs veh, DIAPH2 / RFU, SKA2 / Fold change vs veh, SKA2 / RFU, AFF3 / Fold change vs veh, AFF3 / RFU, LMF1 / Fold change vs veh, LMF1 / RFU, IPO11 / Fold change vs veh, IPO11 / RFU, DFFB / Fold change vs veh, DFFB / RFU, FOXP1 / Fold change vs veh, FOXP1 / RFU, CARD8 / Fold change vs veh, CARD8 / RFU, STRN3 / Fold change vs veh, STRN3 / RFU, ADK / Fold change vs veh, ADK / RFU, RASSF2 / Fold change vs veh, RASSF2 / RFU, WIPF1 / Fold change vs veh, WIPF1 / RFU, LARP1B / Fold change vs veh, LARP1B / RFU, RASA1 / Fold change vs veh, RASA1 / RFU, RB1 / Fold change vs veh, RB1 / RFU, PPFIA1 / Fold change vs veh, PPFIA1 / RFU, MAT2A / Fold change vs veh, MAT2A / RFU, CCT5 / Fold change vs veh, CCT5 / RFU, WDR92 / Fold change vs veh, WDR92 / RFU, CUX1 / Fold change vs veh, CUX1 / RFU, TTC7A / Fold change vs veh, TTC7A / RFU, TMEM135 / Fold change vs veh, TMEM135 / RFU, DEPTOR / Fold change vs veh, DEPTOR / RFU, CPM / Fold change vs veh, CPM / RFU, DNAJB6 / Fold change vs veh, DNAJB6 / RFU, CACNA2D3 / Fold change vs veh, CACNA2D3 / RFU, DTX4 / Fold change vs veh, DTX4 / RFU, TFCP2 / Fold change vs veh, TFCP2 / RFU, GMCL1 /// GMCL1P1 / Fold change vs veh, GMCL1 /// GMCL1P1 / RFU, AEBP2 / Fold change vs veh, AEBP2 / RFU, SNHG1 /// SNORD22 /// SNORD25 /// SNORD26 /// SNORD27 /// SNORD28 /// SNORD29 /// SNORD31 / Fold change vs veh, SNHG1 /// SNORD22 /// SNORD25 /// SNORD26 /// SNORD27 /// SNORD28 /// SNORD29 /// SNORD31 / Fold change (Aza/veh), C12orf56 (ProbeSet 11735607_a_at) / Fold change (ACY-1035/veh), C12orf56 (ProbeSet 11735607_a_at) / Fold change (Aza/veh), FGFR1OP (ProbeSet 11751329_s_at) / Fold change (ACY-1035/veh), FGFR1OP (ProbeSet 11751329_s_at) / Fold change (Aza/veh), VPS36 (ProbeSet 11739960_a_at) / Fold change (ACY-1035/veh), VPS36 (ProbeSet 11739960_a_at) / RFU SYPL1 (11715823_x_at) / Fold change /veh SYPL1 (11715823_x_at) / RFU IGFBP7 (11715501_s_at) / Fold change /veh IGFBP7 (11715501_s_at) / RFU REEP3 (11722064_at) / Fold change /veh REEP3 (11722064_at) / RFU IGLL1 (11728026_x_at) / Fold change /veh IGLL1 (11728026_x_at): dose or concentration left out as unconfirmed", "details": "ProbeSet 11729384_s_at; LIST D"}
{"smiles": "Nc1ccc(-c2cccs2)cc1NC(=O)c1ccc2c(c1)cc(C1CC1)n2CCN1CCOCC1", "note": "[ACY-1035]", "values": [{"measurement": "Fold change vs veh, CCNY", "result": 0.87}]}
